Assay [1] deals with LTB4 induced skin reaction. Kind of assay: Local skin reaction induced by topical application of LTB4. The assay is classed as in vivo, human. How it is done:
Reactions appear after 12 hours and peak at 24-48 hours.
The solutions were then applied to the flexor surface of the forearm and air dried. […] The deposits were occluded under a chamber which was removed after 6 hours. Skin reactions were observed from 12-96 hours.
Solutions were incubated for 10 minutes at room temperature then applied to the flexor surface of the forearm and air dried. […] The deposits were occluded under a chamber which was removed after 6 hours. Skin reactions were observed from 12-96 hours.

Assay [2] can be described thus: LTB4 binding by UV absorbance after ultrafiltration. How it is done: The mixture was concentrated to 200 μl in Vivaspin (Sartorious) 5 kDa cut off ultrafiltration device. The retentate was washed with a further 30 mL of PBS and concentrated to 200 μl. In parallel, the same amount (4.5 mg) of bOmCI was incubated with 1.8 ml ultrapure ethanol in 39 mL PBS, then concentrated and washed as described above. The final volume of the concentrated proteins was 200 μl. UV absorption spectra of the proteins were examined using a Nanodrop ND-1000 Spectrophotometer.

Assay [3] relates to immune complex induced lung injury. Kind of assay: Immune complex induced lung disease (intranasal anti-Ova antibody). The assay is classed as in vivo, mouse. How it is done: Recombinant OmCI was given at 0, 50, 100 and 250 μg intravenously together with 300 μg Ova containing 0.3% Evans blue (EB). […] MK886 is a leukotriene synthesis inhibitor. MK886 was administered with 300 μg Ova containing 0.3% Evans blue (EB) as a positive control.

Assay [4] can be described thus: LTB4 EIA using only LTB4-AP conjugate as ligand. The class given is binding. Conditions: for comparison of LTB4-AP binding by yOmCI and bOmCI: equivalent concentrations (FIG. 9). How it is done: (§1) 100 μl of the standard solutions were mixed with ≦90 of PBS or diluted stock solutions of OmCI or RaHBP2. The mixtures were incubated at room temperature for 20 minutes then used in the immunoassays in accordance with the manufacturers instructions. The absorbance readings of the treated samples were compared with a standard curve to estimate the concentration of eicosanoids available in solution for binding by the anti-eicosanoid polyclonal antibodies.

The nature of assay [5]: Competitive enzyme immunoassay (EIA) for 12(S)-HETE binding. Conditions: for proportion of 12(S)-HETE bound: 634 molar excess OmCI to 12(S)-HETE, 12500 pg/mL 12(S)-HETE (FIG. 5). How it is done:
Competitive enzyme immunoassays (EIAs) from Assay Designs Inc. are available for the quantification of a number of the eicosanoids. One such EIA kit uses a polyclonal antibody to 12(S)-HETE to bind 12(S)-HETE labelled with alkaline phosphatase and competing unlabelled 12(S)-HETE in the sample or standards of known concentration. After simultaneous incubation at room temperature and capture of the antibody on the plate, the excess reagents are washed away, the substrate added and reaction measured by microplate reader. The higher the concentration of 12(S)-HETE in sample or standard the lower the absorbance reading, because the unlabelled fatty acid competes for binding with the alkaline phosphatase labelled molecule.
12(S)-HETE EIA Kit was from Assay Designs (Cat. No. 900-050). OmCI stocks used were expressed either in yeast (yOmCI) or bacteria (bOmCI). Both stocks were ≧98% pure, 8.3 mg/mL in phosphate buffered saline pH 7.2 (PBS). The negative control tick histamine binding protein RaHBP2, which is also a lipocalin (Paesen et al., 1999), was expressed in bacteria and was also ≧98% pure, 8.3 mg/mL in PBS. 12(S)-HETE standard was diluted to 50000, 12500, 3125, 781, 195 pg/mL in the assay buffer supplied with the kit. 100 μl of the 12500, 3125 and 0 pg/mL solutions were mixed with ≦9 μl of phosphate buffered saline pH 7.2 (PBS) or solutions of OmCI or RaHBP2 in PBS. The mixtures were incubated at room temperature for 20 minutes then used in the 12(S)-HETE immunoassay in accordance with the manufacturers instructions. The absorbance readings of the treated samples were compared with a standard curve to estimate the concentration of 12(S)-HETE available in solution for binding by the anti-12(S)-HETE polyclonal antibody.
Similar methods to those described in Example 1 were used.

Assay [6] in a line: Competitive EIA for thromboxane B2 binding. How it is done:
as §1

Assay [7] can be described thus: Competitive EIA for cysteinyl leukotriene binding. Particulars: data not shown. How it is done: as §1
A short description of assay [8]: Competitive EIA for LTB4 with unlabelled LTB4. Particulars: 750 pg/mL LTB4 added (FIG. 7). The assay is classed as binding. How it is done:
as §1

Another assay has as its target T1, Human BLT2 (Homo sapiens, UniProt Q9NPC1).
T1 sequence (Q9NPC1 1-358): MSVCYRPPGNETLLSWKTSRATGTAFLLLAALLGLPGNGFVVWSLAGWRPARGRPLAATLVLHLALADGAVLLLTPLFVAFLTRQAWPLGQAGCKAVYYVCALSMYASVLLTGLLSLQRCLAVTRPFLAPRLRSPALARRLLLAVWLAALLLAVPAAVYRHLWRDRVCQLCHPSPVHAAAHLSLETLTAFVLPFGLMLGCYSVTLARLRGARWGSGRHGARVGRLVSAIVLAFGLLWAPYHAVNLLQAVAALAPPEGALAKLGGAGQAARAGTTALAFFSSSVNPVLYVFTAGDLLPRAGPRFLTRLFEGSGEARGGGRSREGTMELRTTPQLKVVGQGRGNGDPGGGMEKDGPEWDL
Particulars: cited from earlier work.

Setting [9] is: Example 5, bOmCI 33×, 16×, 7×, 2× or ovalbumin 15×, 3×, 1× molar excess, forearm (FIG. 12).
The mark [10] stands for this setting: 50 μg intravenous (legend of FIG. 16).
[11] abbreviates: 100 μg intravenously 15 min prior to intranasal OVA antibody.
The mark [12] stands for this setting: AP conjugate only, data not shown.

With “Ovalbumin: negative control protein ovalbumin (Mr 45 kDa) [reference compound]”, the “skin reaction induced by 100 ng LTB4” value in assay [1] (setting [9]) is “no effect on lesion formation”. Also, the lesion formation result in assay [1] (Example 8, negative control protein) is “no inhibitory effect on lesion formation”.
In the case of “OmCI: soft tick derived complement (C) inhibitor of Ornithodoros moubata, SEQ ID NO: 2 / 3; binds C5 and LTB4”, in [2] (conclusion from examples 6 and 7), the “LTB4 binding stoichiometry and affinity” value was “binds to a single molecule of LTB4 with high affinity”. Also, the “skin reaction induced by 100 ng LTB4” value in assay [1] (setting [9]) is given as “completely ablated”; in assay [1] (Example 8, 4:1 to 1:1 molar ratio (FIG. 15)), “ablated the skin reaction”. The “lesion formation compared to LTB4 alone” value in assay [1] (Example 8, molar ratios 0.5:1 and less) is on record as “no effect on lesion formation”. Besides, the “dose dependence of effect” value in assay [3] (0, 50, 100 and 250 μg intravenously, data not shown) was “dose dependent”. Further, the figures for the “neutrophil recruitment in the lung” value in assay [3] (setting [10]) and in [3] (setting [11]) were “reduces neutrophil recruitment in the lung” and “reduced neutrophil recruitment in the lung”, respectively. The “vascular permeability and protein exudation” value in [3] (setting [10]) is “decreases vascular permeability and protein exudation”. Moreover, in assay [3] (setting [11]), the “pulmonary microvascular damage and protein exudations in the bronchoalveolar space” value is reported as “reduced protein exudations”.
For `CC(C)c1ccc2c(c1)c(SC(C)(C)C)c(CC(C)(C)C(=O)O)n2Cc1ccc(Cl)cc1` [MK886, reference compound], the “microvascular damage and inflammation” value in assay [3] (positive control (FIG. 16)) is listed as “reduced dramatically”.
On to bOmCI: bacterial expressed OmCI, for which the “competition of excess 12(S)-HETE with LTB4-AP binding” value in assay [4] (8.24 μg bOmCI (FIG. 10)) was “does not outcompete”. In addition, the “amount of protein that binds approximately 50% of the LTB4-AP” value in assay [4] (FIG. 8) was 0.33 µg. Besides, the “excess of protein needed to bind 50% of the LTB4-AP” value in assay [4] (calculated assuming 100% conjugation efficiency and IC50=1:1 binding) is listed as 1200 ×. In assay [4] (dilution series, 50 μL LTB4-AP, no unlabelled LTB4 (FIG. 8)), the “binding to LTB4-AP” value is “dose dependent binding”. Moreover, the “comparison of LTB4-AP binding by yOmCI and bOmCI” value in assay [4] was “fairly similar”. Further, the “LTB4 bound from solution” value in assay [2] (1:1 molar ratio OmCI:LTB4, flow through of ultrafiltration (FIG. 13A)) was “all the LTB4 added to initial mixture was bound”. Also, the “proportion of 12(S)-HETE bound” value in assay [5] was determined as 97%. Also, in assay [5] (20 min preincubation with 12500 pg/mL 12(S)-HETE, 41.2 μg protein (FIG. 2)), the “amount of 12(S)-HETE available in solution for antibody binding” value is on record as “decreases the amount of 12(S)-HETE available in solution”. Further, the “direct binding of 12(S)-HETE-AP conjugate” value in [5] (setting [12]) is on record as “not bound directly”. The “effect of prolonged incubation on proportion of 12(S)-HETE bound” value in [5] (overnight at room temperature (FIG. 4)) is on record as “does not increase the proportion of 12(S)-HETE bound”. Also, the “binding of TXB2” value in assay [6] (3333 pg/mL TXB2 (FIG. 6)) is recorded as “does not appear to bind”. Further, the “direct binding of TXB2-AP conjugate” value in [6] (setting [12]) is “not bound directly”. In addition, in assay [7] (AP conjugate only), the “direct binding of cys-LK-AP conjugate” value was “not bound directly”. The “binding of Cys-LKs” value in assay [7] is “does not appear to bind”. In addition, the “estimated concentration of LTB4 in solution” value in assay [8] is 10000 pg/mL.
Regarding `CCCCC/C=C\C[C@@H](O)/C=C/C=C/C=C\[C@@H](O)CCCC(=O)O` [LTB4, leukotriene B4], the “lower affinity of BLT2 than BLT1 for LTB4” value on Human BLT2 was 20 fold.
“OmCI preloaded with LTB4: bOmCI with LTB4 loaded into the binding pocket (example 6)”: the “skin reaction induced by 100 ng LTB4” value in assay [1] (Example 8, 4:1 molar ratio, preloaded protein) is on record as “did not prevent the skin reaction”. The “inhibitory effect on immune complex induced disease after saturation of the LTB4 binding site” value in assay [3] (OmCI preloaded with LTB4 (FIG. 16)) is reported as “attenuated the inhibitory effect of OmCI although it did not abrogate the response”.
For the molecule yOmCI: yeast expressed OmCI, the “comparison of LTB4-AP binding by yOmCI and bOmCI” value in assay [4] was “fairly similar”. The “proportion of 12(S)-HETE bound” value in assay [5] is reported as “roughly 50%”.

The values above are taken from patent US20110059885A1, “TREATMENT OF DISEASES AND CONDITIONS MEDIATED BY EICOSANOIDS” (Natural Environment Research Council, priority 2008, published 2011).
